Results taken from ChEMBL document CHEMBL4725342, “Design, synthesis and structure-activity relationship study of piperazinone-containing thieno[3,2-d]pyrimidine derivatives as new PI3Kδ inhibitors” (Bioorg Med Chem Lett, 2020).

What was measured:
[1] = molecular target: T1, Phosphatidylinositol 4,5-bisphosphate 3-kinase catalytic subunit delta isoform (Homo sapiens, UniProt O00329); experiment: Inhibition of PI3Kdelta (unknown origin)
T1 sequence (O00329 whole entry): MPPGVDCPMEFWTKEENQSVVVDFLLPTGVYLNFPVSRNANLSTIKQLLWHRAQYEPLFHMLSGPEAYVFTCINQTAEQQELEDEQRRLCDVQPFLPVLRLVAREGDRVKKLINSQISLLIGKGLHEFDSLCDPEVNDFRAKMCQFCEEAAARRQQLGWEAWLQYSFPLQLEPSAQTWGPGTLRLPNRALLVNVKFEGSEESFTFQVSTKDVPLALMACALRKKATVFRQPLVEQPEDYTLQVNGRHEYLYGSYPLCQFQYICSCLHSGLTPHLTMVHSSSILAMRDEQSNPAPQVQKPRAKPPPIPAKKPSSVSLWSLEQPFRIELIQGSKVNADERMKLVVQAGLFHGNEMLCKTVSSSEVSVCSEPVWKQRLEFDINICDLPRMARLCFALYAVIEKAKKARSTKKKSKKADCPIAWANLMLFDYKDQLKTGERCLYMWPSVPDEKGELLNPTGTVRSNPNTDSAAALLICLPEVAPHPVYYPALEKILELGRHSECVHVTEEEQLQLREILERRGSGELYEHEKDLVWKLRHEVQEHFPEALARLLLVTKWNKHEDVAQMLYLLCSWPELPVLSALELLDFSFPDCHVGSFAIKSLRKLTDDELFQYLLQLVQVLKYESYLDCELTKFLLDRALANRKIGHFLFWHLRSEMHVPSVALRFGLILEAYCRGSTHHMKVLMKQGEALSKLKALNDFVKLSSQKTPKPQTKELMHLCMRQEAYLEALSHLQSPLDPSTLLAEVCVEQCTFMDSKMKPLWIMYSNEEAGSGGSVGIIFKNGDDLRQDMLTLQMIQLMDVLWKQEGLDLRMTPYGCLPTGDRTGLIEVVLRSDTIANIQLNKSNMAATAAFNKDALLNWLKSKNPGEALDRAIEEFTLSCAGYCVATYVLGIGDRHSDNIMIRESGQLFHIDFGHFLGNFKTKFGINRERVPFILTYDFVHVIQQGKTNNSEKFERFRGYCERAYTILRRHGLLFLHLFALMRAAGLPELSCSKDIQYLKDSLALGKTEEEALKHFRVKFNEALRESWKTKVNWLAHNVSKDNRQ

Homo sapiens = organism: Homo sapiens; experiment: Selectivity index, ratio of IC50 for PI3Kalpha (unknown origin) to IC50 for PI3Kdelta (unknown origin)
[2] = molecular target: Phosphatidylinositol 4,5-bisphosphate 3-kinase catalytic subunit alpha isoform (Homo sapiens, UniProt P42336); experiment: Inhibition of PI3Kalpha (unknown origin)
[3] = molecular target: Phosphatidylinositol 4,5-bisphosphate 3-kinase catalytic subunit beta isoform (Homo sapiens, UniProt P42338); experiment: Inhibition of PI3Kbeta (unknown origin)
[4] = molecular target: Phosphatidylinositol 4,5-bisphosphate 3-kinase catalytic subunit gamma isoform (Homo sapiens, UniProt P48736); experiment: Inhibition of PI3Kgamma (unknown origin)
OCI-Ly3 = experiment: Antiproliferative activity against human OCILY3 assessed as reduction in cell growth by MTS assay; assay type: functional, cell-based
OCI-Ly10 = experiment: Antiproliferative activity against human OCILY10 assessed as reduction in cell growth by MTS assay; assay type: functional, cell-based
SU-DHL-6 = experiment: Antiproliferative activity against human SU-DHL-6 assessed as reduction in cell growth by MTS assay; assay type: functional, cell-based
JeKo-1 = experiment: Antiproliferative activity against human JeKo-1 assessed as reduction in cell growth by MTS assay; assay type: functional, cell-based
Vero = experiment: Cytotoxicity against monkey Vero cells assessed as reduction in cell viability by MTS assay; assay type: cell-based; conditions: Chlorocebus sabaeus
L02 = experiment: Cytotoxicity against human L02 cells assessed as reduction in cell viability by MTS assay; assay type: cell-based
HEK293 = experiment: Cytotoxicity against human HEK293 cells assessed as reduction in cell viability by MTS assay; assay type: cell-based

Phosphatidylinositol 4,5-bisphosphate 3-kinase catalytic subunit beta isoform, sequence (P42338 whole entry, canonical isoform): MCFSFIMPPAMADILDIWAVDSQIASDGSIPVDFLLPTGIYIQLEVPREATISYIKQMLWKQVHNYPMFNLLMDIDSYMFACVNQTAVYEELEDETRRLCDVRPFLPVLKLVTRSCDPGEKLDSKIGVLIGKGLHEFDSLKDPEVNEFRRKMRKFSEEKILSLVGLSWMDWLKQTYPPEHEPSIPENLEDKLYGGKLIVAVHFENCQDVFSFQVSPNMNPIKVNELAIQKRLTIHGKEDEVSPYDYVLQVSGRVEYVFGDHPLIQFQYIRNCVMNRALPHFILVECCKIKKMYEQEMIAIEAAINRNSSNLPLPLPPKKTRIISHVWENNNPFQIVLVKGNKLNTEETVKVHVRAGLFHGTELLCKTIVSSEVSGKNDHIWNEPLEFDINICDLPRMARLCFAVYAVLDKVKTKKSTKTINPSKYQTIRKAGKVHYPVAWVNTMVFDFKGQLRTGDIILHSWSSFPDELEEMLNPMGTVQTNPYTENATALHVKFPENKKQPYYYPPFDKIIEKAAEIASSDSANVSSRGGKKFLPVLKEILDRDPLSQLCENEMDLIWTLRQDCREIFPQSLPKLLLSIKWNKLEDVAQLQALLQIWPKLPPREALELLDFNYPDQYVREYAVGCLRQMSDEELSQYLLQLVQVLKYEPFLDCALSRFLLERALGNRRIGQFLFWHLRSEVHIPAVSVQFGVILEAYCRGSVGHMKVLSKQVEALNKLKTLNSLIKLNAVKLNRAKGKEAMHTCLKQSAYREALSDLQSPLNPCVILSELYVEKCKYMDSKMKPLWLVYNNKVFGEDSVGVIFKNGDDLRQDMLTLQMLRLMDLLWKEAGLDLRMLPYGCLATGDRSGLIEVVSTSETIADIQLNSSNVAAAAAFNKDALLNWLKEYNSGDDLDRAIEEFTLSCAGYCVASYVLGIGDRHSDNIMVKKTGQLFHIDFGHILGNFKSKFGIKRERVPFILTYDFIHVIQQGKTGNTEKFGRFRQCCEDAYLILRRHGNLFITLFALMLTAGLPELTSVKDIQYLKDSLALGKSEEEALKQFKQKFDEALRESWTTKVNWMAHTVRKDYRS
Phosphatidylinositol 4,5-bisphosphate 3-kinase catalytic subunit alpha isoform, sequence (P42336 whole entry, canonical isoform): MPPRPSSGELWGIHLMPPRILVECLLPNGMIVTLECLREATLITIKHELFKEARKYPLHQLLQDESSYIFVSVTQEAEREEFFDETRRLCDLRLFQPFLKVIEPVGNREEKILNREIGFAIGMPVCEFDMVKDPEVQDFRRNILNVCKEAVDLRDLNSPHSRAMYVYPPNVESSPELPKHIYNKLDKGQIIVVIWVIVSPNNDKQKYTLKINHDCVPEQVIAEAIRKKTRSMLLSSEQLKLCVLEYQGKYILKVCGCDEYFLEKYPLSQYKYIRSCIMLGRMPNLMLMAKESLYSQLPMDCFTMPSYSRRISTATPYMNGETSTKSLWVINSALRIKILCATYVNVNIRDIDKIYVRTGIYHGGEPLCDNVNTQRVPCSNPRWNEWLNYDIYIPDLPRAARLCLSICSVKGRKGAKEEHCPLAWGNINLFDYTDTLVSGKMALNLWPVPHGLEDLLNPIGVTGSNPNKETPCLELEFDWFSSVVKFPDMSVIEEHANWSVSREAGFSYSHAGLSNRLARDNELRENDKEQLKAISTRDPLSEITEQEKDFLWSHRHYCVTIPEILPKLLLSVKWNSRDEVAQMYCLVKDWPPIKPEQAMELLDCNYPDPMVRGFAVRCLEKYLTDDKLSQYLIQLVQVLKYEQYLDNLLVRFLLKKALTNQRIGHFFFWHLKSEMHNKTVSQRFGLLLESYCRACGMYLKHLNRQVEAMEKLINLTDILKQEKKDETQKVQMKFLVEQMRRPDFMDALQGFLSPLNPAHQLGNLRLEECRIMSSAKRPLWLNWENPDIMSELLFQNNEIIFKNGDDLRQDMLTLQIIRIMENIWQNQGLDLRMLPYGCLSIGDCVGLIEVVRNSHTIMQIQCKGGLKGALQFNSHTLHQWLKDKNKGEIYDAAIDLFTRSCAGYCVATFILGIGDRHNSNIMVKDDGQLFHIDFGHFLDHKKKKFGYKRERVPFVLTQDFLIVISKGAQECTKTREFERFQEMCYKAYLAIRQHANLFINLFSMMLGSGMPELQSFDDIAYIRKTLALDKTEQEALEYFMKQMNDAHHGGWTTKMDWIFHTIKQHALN
Phosphatidylinositol 4,5-bisphosphate 3-kinase catalytic subunit gamma isoform, sequence (P48736 whole entry, canonical isoform): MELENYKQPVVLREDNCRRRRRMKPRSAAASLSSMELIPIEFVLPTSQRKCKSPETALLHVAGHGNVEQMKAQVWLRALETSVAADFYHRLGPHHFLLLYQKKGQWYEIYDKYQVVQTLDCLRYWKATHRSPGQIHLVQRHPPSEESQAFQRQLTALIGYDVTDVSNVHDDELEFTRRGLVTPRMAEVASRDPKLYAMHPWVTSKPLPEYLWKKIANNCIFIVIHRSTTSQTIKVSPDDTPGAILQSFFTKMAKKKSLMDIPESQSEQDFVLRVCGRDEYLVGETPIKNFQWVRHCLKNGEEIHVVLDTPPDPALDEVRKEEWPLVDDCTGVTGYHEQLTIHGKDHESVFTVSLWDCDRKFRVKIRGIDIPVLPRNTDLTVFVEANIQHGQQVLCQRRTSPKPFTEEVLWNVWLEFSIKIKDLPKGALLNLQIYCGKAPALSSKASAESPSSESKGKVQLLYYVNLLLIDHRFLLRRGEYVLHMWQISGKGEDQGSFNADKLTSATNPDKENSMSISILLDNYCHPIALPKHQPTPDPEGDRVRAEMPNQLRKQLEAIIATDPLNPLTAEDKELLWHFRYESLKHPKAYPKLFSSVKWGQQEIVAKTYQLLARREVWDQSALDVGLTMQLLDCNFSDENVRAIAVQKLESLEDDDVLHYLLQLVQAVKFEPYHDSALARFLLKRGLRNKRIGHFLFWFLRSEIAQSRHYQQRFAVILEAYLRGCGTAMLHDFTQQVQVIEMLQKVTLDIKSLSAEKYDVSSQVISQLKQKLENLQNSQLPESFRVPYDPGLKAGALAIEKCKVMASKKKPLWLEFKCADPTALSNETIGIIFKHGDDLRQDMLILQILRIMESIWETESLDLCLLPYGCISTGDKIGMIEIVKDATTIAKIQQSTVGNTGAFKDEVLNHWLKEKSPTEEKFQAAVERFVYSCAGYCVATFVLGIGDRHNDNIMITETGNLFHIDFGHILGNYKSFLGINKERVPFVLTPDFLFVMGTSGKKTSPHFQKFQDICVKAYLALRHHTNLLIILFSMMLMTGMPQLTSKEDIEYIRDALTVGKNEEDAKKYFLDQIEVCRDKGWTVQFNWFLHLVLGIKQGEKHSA

## CCCS(=O)(=O)N1CCN(Cc2cc3nc(-n4c(CC)nc5ccccc54)nc(N4CCOCC4)c3s2)C(=O)C1
[1]
  IC50: 3.5 nM
Homo sapiens
  Ratio IC50: 4

## CCc1nc2ccccc2n1-c1nc(N2CCOCC2)c2sc(CN3CCN(C(=O)C4CC4)CC3=O)cc2n1
[1]
  IC50: 1.1 nM
[2]
  IC50: 84 nM
[3]
  IC50: 137 nM
[4]
  IC50: 185 nM
OCI-Ly3
  IC50: 2200 nM
OCI-Ly10
  IC50: 7600 nM
SU-DHL-6
  IC50: 100 nM
JeKo-1
  IC50: 190 nM
Vero
  IC50: > 20000 nM
L02
  IC50: > 20000 nM
HEK293
  IC50: > 20000 nM

## CCc1nc2ccccc2n1-c1nc(N2CCOCC2)c2sc(CN3CCN(C4CCCC4)C(=O)C3)cc2n1
[1]
  IC50: 2.1 nM
[2]
  IC50: 250 nM
[3]
  IC50: > 500 nM
[4]
  IC50: > 500 nM
OCI-Ly3
  IC50: 2800 nM
OCI-Ly10
  IC50: > 10000 nM
SU-DHL-6
  IC50: 180 nM
JeKo-1
  IC50: 170 nM
Vero
  IC50: > 20000 nM
L02
  IC50: > 20000 nM
HEK293
  IC50: > 20000 nM

## CCc1nc2ccccc2n1-c1nc(N2CCOCC2)c2sc(CN3CCN(C4CCC(N5CCCC5)CC4)CC3=O)cc2n1 (stereo not given)
[1]
  IC50: 14 nM
Homo sapiens
  Ratio IC50: 8

## CCc1nc2ccccc2n1-c1nc(N2CCOCC2)c2sc(CN3CCN(C(=O)[C@H](C)O)CC3=O)cc2n1
[1]
  IC50: 3.6 nM
Homo sapiens
  Ratio IC50: 49

## CC[C@H](Nc1ncnc2[nH]cnc12)c1nc2cccc(F)c2c(=O)n1-c1ccccc1 [IDELALISIB]
OCI-Ly3
  IC50: 5200 nM
OCI-Ly10
  IC50: > 10000 nM
SU-DHL-6
  IC50: 120 nM
JeKo-1
  IC50: 120 nM
Vero
  IC50: > 20000 nM
L02
  IC50: > 20000 nM
HEK293
  IC50: > 20000 nM

## CCc1nc2ccccc2n1-c1nc(N2CCOCC2)c2sc(CN3CCN(c4cnn(C)c4)C(=O)C3)cc2n1
[1]
  IC50: 3.4 nM
Homo sapiens
  Ratio IC50: 24

## CCc1nc2ccccc2n1-c1nc(N2CCOCC2)c2sc(CN3CCN(C4CCCCC4)CC3=O)cc2n1
[1]
  IC50: 12 nM
Homo sapiens
  Ratio IC50: 21

## CCc1nc2ccccc2n1-c1nc(N2CCOCC2)c2sc(CN3CCN(C4CCC(F)(F)CC4)CC3=O)cc2n1
[1]
  IC50: 3.8 nM
Homo sapiens
  Ratio IC50: 71

## CCc1nc2ccccc2n1-c1nc(N2CCOCC2)c2sc(CN3CCN(C(C)C)CC3=O)cc2n1
[1]
  IC50: 2.1 nM
Homo sapiens
  Ratio IC50: 53

## CCc1nc2ccccc2n1-c1nc(N2CCOCC2)c2sc(CN3CCN(C4CCC(N(C)C)CC4)CC3=O)cc2n1 (stereo not given)
[1]
  IC50: 14 nM
Homo sapiens
  Ratio IC50: 36

## CCc1nc2ccccc2n1-c1nc(N2CCOCC2)c2sc(CN3CCN(S(C)(=O)=O)CC3)cc2n1
[1]
  IC50: 4.1 nM
Homo sapiens
  Ratio IC50: 2.4

## CCc1nc2ccccc2n1-c1nc(N2CCOCC2)c2sc(CN3CCN(C)CC3=O)cc2n1
[1]
  IC50: 4.5 nM
Homo sapiens
  Ratio IC50: 7.7

## CCc1nc2ccccc2n1-c1nc(N2CCOCC2)c2sc(CN3CCN(C)C(=O)C3)cc2n1
[1]
  IC50: 4.9 nM
Homo sapiens
  Ratio IC50: 53

## CCc1nc2ccccc2n1-c1nc(N2CCOCC2)c2sc(CN3CCN(CC)C(=O)C3)cc2n1
[1]
  IC50: 4.1 nM
Homo sapiens
  Ratio IC50: 10

## C=CCN1CCN(Cc2cc3nc(-n4c(CC)nc5ccccc54)nc(N4CCOCC4)c3s2)C(=O)C1
[1]
  IC50: 1.6 nM
[2]
  IC50: 295 nM
[3]
  IC50: 232 nM
[4]
  IC50: 266 nM
OCI-Ly3
  IC50: 8600 nM
OCI-Ly10
  IC50: > 10000 nM
SU-DHL-6
  IC50: 570 nM
JeKo-1
  IC50: 470 nM
Vero
  IC50: > 20000 nM
L02
  IC50: > 20000 nM
HEK293
  IC50: > 20000 nM

## C=CC(=O)N1CCN(Cc2cc3nc(-n4c(CC)nc5ccccc54)nc(N4CCOCC4)c3s2)C(=O)C1
[1]
  IC50: 2.9 nM
Homo sapiens
  Ratio IC50: 43

## CCc1nc2ccccc2n1-c1nc(N2CCOCC2)c2sc(CN3CCNC(=O)C3)cc2n1
[1]
  IC50: 20 nM
Homo sapiens
  Ratio IC50: 13

## CCc1nc2ccccc2n1-c1nc(N2CCOCC2)c2sc(CN3CCN(CC(F)(F)F)CC3=O)cc2n1
[1]
  IC50: 6.3 nM
Homo sapiens
  Ratio IC50: 32

## CCc1nc2ccccc2n1-c1nc(N2CCOCC2)c2sc(CN3CCN(c4nccs4)C(=O)C3)cc2n1
[1]
  IC50: 2.1 nM
Homo sapiens
  Ratio IC50: 7.7

## CCc1nc2ccccc2n1-c1nc(N2CCOCC2)c2sc(CN3CCN(C4CCCC4)CC3=O)cc2n1
[1]
  IC50: 2.9 nM
[2]
  IC50: 243 nM
[3]
  IC50: > 500 nM
[4]
  IC50: 370 nM
OCI-Ly3
  IC50: 6900 nM
OCI-Ly10
  IC50: > 10000 nM
SU-DHL-6
  IC50: 530 nM
JeKo-1
  IC50: 560 nM
Vero
  IC50: > 20000 nM
L02
  IC50: > 20000 nM
HEK293
  IC50: > 20000 nM

## CCc1nc2ccccc2n1-c1nc(N2CCOCC2)c2sc(CN3CCN(C(=O)C4CCCCC4)CC3=O)cc2n1
[1]
  IC50: 7.9 nM
Homo sapiens
  Ratio IC50: 43
